# Measurements reported in patent US11208387B2, “Macrocyclic broad spectrum antibiotics” (Genentech, Inc., priority 2019, dated 2021).
# Read-outs that look alike come from different tables or passages of the source.
# Key:
# Assay in all cases: Serum MIC, broth micro-dilution
# Format in all cases: cell-based
# [1] = test system: Escherichia coli strain ATCC 25922; conditions: Escherichia coli, ATCC25922, read-out: E. coli 25922 Serum MIC
# Procedure: (§1) In vitro antimicrobial activity of each compound was determined by measuring minimal inhibitor concentrations (MICs) using the broth micro-dilution technique as approved by the Clinical and Laboratory Standards Institute (CLSI) (Methods for Dilution Antimicrobial Susceptibility Tests for Bacteria that Grow Aerobically; Approved Standard—Eighth Edition. CLSI document M07-A8. Wayne, Pa.: Clinical and Laboratory Standards; 2009). Antibacterial activity was measure against Escherichia coli strain ATCC 25922 (E. coli), Klebsiella pneumoniae ATCC 700603 (K. pneumoniae), Acinetobacter baumannii ATCC 17978 (A. baumannii), and Pseudomonas aeruginosa PA01 (P. aeruginosa), each of which is representative of a clinically relevant Gram-negative species. Cells were inoculated onto plates of Mueller Hinton Agar and grown at 37° C. for 16-18 hours. Inocula suspensions were prepared by scraping cells into 1 mL of testing media (Mueller Hinton II cation adjusted Broth) and diluting to a final OD 600 nm of 0.01.
# (§2) Test compounds were prepared in DMSO at a concentration of […]. The compounds were tested under several different dilution formats. In protocol 1, the compound stocks were diluted into testing media at a concentration of 64 μg/ml and serial 2-fold dilutions were made in the same media, in 96-well U bottom microtiter dishes, for a total of 10 compound concentrations. In protocol 2, the compound stocks were diluted into testing media at a concentration of 4 μg/mL and serial 2-fold dilutions were made in the same media, in 96-well U bottom microtiter dishes, for a total of 10 compound concentrations. In protocol 3, compound stocks were diluted into testing media at a concentration of 0.5 μg/mL, with serial 2-fold dilutions conducted as described above. In protocol 4, compound stocks were diluted into testing media at a concentration of 0.13 μg/mL, with serial 2-fold dilutions conducted as described above. Inocula suspensions were added to the 2-fold serial dilutions of test compounds to a final density of OD 600 nm of 0.0005 and incubated at 35° C. for 22 hours. […] To assess antimicrobial activity in the presence of plasma proteins, MICs were also determined in growth media supplemented with 50% serum. Bacterial inocula and test compound dilution plates were prepared using the same protocol as described above for the standard MICs assay, with the exception that a mixture of 50% v/v Mueller Hinton II cation adjusted Broth and 50% v/v mouse sterile filtered serum (Equitech-Bio) was used in place of 100% Mueller Hinton II cation adjusted Broth. The results are listed in Table 3 (MIC, IC50 values micromolar).
# [2] = test system: Pseudomonas aeruginosa PA01; conditions: Pseudomonas aeruginosa, PA01, read-out: P. aeruginosa 01 Serum MIC
# Procedure: as §1, §2
# [3] = test system: Acinetobacter baumannii ATCC 17978; conditions: Acinetobacter baumannii, ATCC17978
# Procedure: as §1, §2
# [4] = test system: Klebsiella pneumoniae ATCC 700603; conditions: Klebsiella pneumoniae, ATCC700603
# Procedure: as §1, §2
# [5] = 50% v/v mouse serum in Mueller Hinton II cation adjusted Broth, 35° C., 22 hours, Table 4
# [6] = 50% v/v mouse serum in Mueller Hinton II cation adjusted Broth, 35° C., 22 hours, Table 4, read-out: A. baumanii 17978 Serum MIC
# [7] = 50% v/v mouse serum in Mueller Hinton II cation adjusted Broth, 35° C., 22 hours, Table 5, read-out: Acinetobacter baumanii 17978 Serum MIC
# [8] = 50% v/v mouse serum in Mueller Hinton II cation adjusted Broth, 35° C., 22 hours, Table 4, read-out: K pneumoniae 700603 Serum MIC
# [9] = 50% v/v mouse serum, compounds of Table 1, Table 7
# [10] = 50% v/v mouse serum, compounds of Table 1, Table 7, read-out: A. baumanii 17978 Serum MIC
# [11] = 50% v/v mouse serum, compounds of Table 1, Table 7, read-out: K. pneumoniae 700603 Serum MIC
SMILES,"MIC [1, 5]","MIC [2, 5]","MIC [3, 6]","MIC [3, 7]","MIC [4, 8]","MIC [1, 9]","MIC [2, 9]","MIC [3, 10]","MIC [4, 11]"
"C[C@@H]1NC(=O)[C@@H](N(C)C(=O)[C@H](CNS(N)(=O)=O)NC(=O)c2cnn(-c3ccc(OCCC(C)(C)C)cc3)c(=O)c2)c2cc(OC[C@H](O)CN)c(O)c(c2)-c2cc(ccc2OC[C@H](O)CN)C[C@@H](C(=O)O)NC1=O [Example 4, (8S,11S,14S)-18-hydroxy-11-methyl-14-[methyl-[(2S)-2-[[1-[4-(3,3-dimethyl-butoxy)phenyl]-6-oxo-pyridazine-4-carbonyl]amino]-3-(sulfamoylamino)-propanoyl]amino]-10,13-dioxo-3,17-bis[(2R)-3-amino-2-hydroxy-propoxy]-9,12-diazatricyclo-[13.3.1.12,6]icosa-1(18),2(20),3,5,15(19), 16-hexaene-8-carboxylic acid]",1 µM,12 µM,24 µM,24 µM,0.75 µM,,,,
"C[C@@H]1NC(=O)[C@@H](N(C)C(=O)[C@H](CNS(N)(=O)=O)NC(=O)c2cnc(-c3ccc(C(C)(C)C)cc3)nc2N)c2cc(OC[C@H](O)CN)c(O)c(c2)-c2cc(ccc2OC[C@H](O)CN)C[C@@H](C(=O)O)NC1=O [Example 46, (8S,11S,14S)-14-[[(2S)-2-[[4-amino-2-(4-tert-butylphenyl)-pyrimidine-5-carbonyl]amino]-3-(sulfamoylamino)-propanoyl]-methyl-amino]-3,17-bis[(2R)-3-amino-2-hydroxy-propoxy]-18-hydroxy-11-methyl-10,13-dioxo-9,12-diazatricyclo-[13.3.1.12,6]icosa-1(18),2(20),3,5,15(19), 16-hexaene-8-carboxylic acid]",0.5 µM,16 µM,8 µM,8 µM,0.5 µM,,,,
Cc1nc(-c2ccc3c(c2)CCC3(C)C)nc(C)c1C(=O)N[C@@H](CCN)C(=O)N(C)[C@@H]1C(=O)N[C@@H](C)C(=O)N[C@H](C(=O)O)Cc2ccc(OCCN)c(c2)-c2cc1ccc2OCCN (racemic) [Example 647],,,,,,0.5 µM,64 µM,64 µM,1 µM
Cc1nc(-c2ccc(C3(C)CC3)cc2)nc(N)c1C(=O)N[C@@H](CCN)C(=O)N(C)[C@@H]1C(=O)N[C@@H](C)C(=O)N[C@H](C(=O)O)Cc2ccc(OC[C@H](O)CN)c(c2)-c2cc1cc(OC[C@H](O)CN)c2O [Example 21],0.38 µM,48 µM,16 µM,16 µM,0.25 µM,,,,
"Cc1nc(-c2ccc(C(C)(C)C)cc2CO)nc(N)c1C(=O)N[C@@H](CNS(N)(=O)=O)C(=O)N(C)[C@@H]1C(=O)N[C@@H](C)C(=O)N[C@H](C(=O)O)Cc2ccc(OC[C@H](O)CN)c(c2)-c2cc1cc(OC[C@H](O)CN)c2O [Example 58, (8S,11S,14S)-14-[[(2S)-2-[[4-amino-2-[4-tert-butyl-2-(hydroxymethyl)-phenyl]-6-methyl-pyrimidine-5-carbonyl]amino]-3-(sulfamoylamino)-propanoyl]-methyl-amino]-3,17-bis[(2R)-3-amino-2-hydroxy-propoxy]-18-hydroxy-11-methyl-10,13-dioxo-9,12-diazatricyclo-[13.3.1.12,6]icosa-1(18),2(20),3,5,15(19), 16-hexaene-8-carboxylic acid]",4 µM,16 µM,48 µM,48 µM,4 µM,,,,

# More lines, now with the values ahead:
"MIC [1, 5]","MIC [2, 5]","MIC [3, 6]","MIC [3, 7]","MIC [4, 8]","MIC [1, 9]","MIC [2, 9]","MIC [3, 10]","MIC [4, 11]",SMILES
2 µM,16 µM,16 µM,16 µM,3 µM,,,,,"Cc1nc(N2CCC(C(C)(C)C)CC2)nc(N)c1C(=O)N[C@@H](CNS(N)(=O)=O)C(=O)N(C)[C@@H]1C(=O)N[C@@H](C)C(=O)N[C@H](C(=O)O)Cc2ccc(OC[C@H](O)CN)c(c2)-c2cc1cc(OC[C@H](O)CN)c2O [Example 12, (8S,11S,14S)-18-hydroxy-11-methyl-14-[methyl-[(2S)-2-[[4-amino-2-(4-tert-butyl-1-piperidyl)-6-methyl-pyrimidine-5-carbonyl]amino]-3-(sulfamoylamino)-propanoyl]amino]-10,13-dioxo-3,17-bis[(2R)-3-amino-2-hydroxy-propoxy]-9,12-diazatricyclo-[13.3.1.12,6]icosa-1(18),2(20),3,5,15(19), 16-hexaene-8-carboxylic acid]"
,,,,,0.75 µM,64 µM,64 µM,1 µM,CCCCCOc1ccc(-c2nc(C)c(C(=O)N[C@@H](CCN)C(=O)N(C)[C@@H]3C(=O)N[C@@H](C)C(=O)N[C@H](C(=O)O)Cc4ccc(OCCN)c(c4)-c4cc3ccc4OCCN)c(C)n2)cc1 (racemic) [Example 638]
2 µM,16 µM,24 µM,24 µM,1.5 µM,,,,,"Cc1nc(-c2ccc(C(C)(C)C)cc2)nc(N)c1C(=O)N[C@@H](CCNS(N)(=O)=O)C(=O)N(C)[C@@H]1C(=O)N[C@@H](C)C(=O)N[C@H](C(=O)O)Cc2ccc(OC[C@H](O)CN)c(c2)-c2cc1cc(OC[C@H](O)CN)c2O [Example 76, (8S,11S,14S)-14-[[(2S)-2-[[4-amino-2-(4-tert-butylphenyl)-6-methyl-pyrimidine-5-carbonyl]amino]-4-(sulfamoylamino)-butanoyl]-methyl-amino]-3,17-bis[(2R)-3-amino-2-hydroxy-propoxy]-18-hydroxy-11-methyl-10,13-dioxo-9,12-diazatricyclo-[13.3.1.12,6]icosa-1(18),2(20),3,5,15(19), 16-hexaene-8-carboxylic acid]"
,,,,,0.55 µM,69 µM,69 µM,0.58 µM,Cc1nc(-c2ccc(C(C)(C)C)cc2)nc(C)c1C(=O)N[C@@H](CCN)C(=O)N(C)[C@@H]1C(=O)N[C@@H](C)C(=O)N[C@H](C(=O)O)Cc2ccc(O)c(c2)-c2cc1ccc2OCCN (racemic) [Example 646]
0.5 µM,8 µM,16 µM,16 µM,0.5 µM,,,,,"Cc1cc(-c2ccc(C(C)(C)C)cc2F)nc(N)c1C(=O)N[C@@H](CNS(N)(=O)=O)C(=O)N(C)[C@@H]1C(=O)N[C@@H](C)C(=O)N[C@H](C(=O)O)Cc2ccc(OC[C@H](O)CN)c(c2)-c2cc1cc(OC[C@H](O)CN)c2O [Example 35, (8S,11S,14S)-14-[[(2S)-2-[[2-amino-6-(4-tert-butyl-2-fluoro-phenyl)-4-methyl-pyridine-3-carbonyl]amino]-3-(sulfamoylamino)-propanoyl]-methyl-amino]-3,17-bis[(2R)-3-amino-2-hydroxy-propoxy]-18-hydroxy-11-methyl-10,13-dioxo-9,12-diazatricyclo-[13.3.1.12,6]icosa-1(18),2(20),3,5,15(19), 16-hexaene-8-carboxylic acid]"
